Measurements taken from patent US9499550B2 (BRISTOL-MYERS SQUIBB COMPANY, priority 2012, dated 2016).
Like-named read-outs stand apart in the source and are kept apart here.

Experiments:
[1] = system: HCV genotype 1a (H77 strain) replicon in HUH-7 cells; assay: HCV replicon luciferase reporter assay, genotype 1a; format: cell-based; conditions: Hepatitis C virus, Huh-7, 72 h, 3 days incubation
Summary of the method: (§1)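 Replicon inhibition for both genotypes was measured as Renilla luciferase signal (EnduRen, 7.5 μM final, 2 h) after 3-day, 37° C exposure of replicon-bearing HUH-7 cells in 4% FCS DMEM, 0.5% DMSO. The 1b construct carries S1179I; the 1a H77 construct carries P1496L and S2204I. Twenty-point, 3-fold dilutions were fitted four-parametrically for EC50, and CC50 was taken from multiplexed Cell Titer-Blue.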

[2] = system: HCV genotype 1b (Con1) replicon in HUH-7 cells; assay: HCV replicon luciferase reporter assay, genotype 1b; format: cell-based; conditions: Hepatitis C virus, Huh-7, 72 h, 3 days incubation
Summary of the method: as §1

[3] = HCV genotype 1a replicon luciferase, read-out: LE_1a (EC50)
[4] = HCV genotype 1a replicon luciferase, read-out: LE_1a (EC50, range)
[5] = HCV genotype 1b replicon luciferase, read-out: LE_1b (EC50)
[6] = HCV genotype 1b replicon luciferase, read-out: LE_1b (EC50, range)
[7] = GETYPE1A, HCV genotype 1a replicon luciferase, read-out: LE_1a (EC50, range)
[8] = GETYPE1B, HCV genotype 1b replicon luciferase, read-out: LE_1b (EC50, range)

SMILES | EC50 [1, 4] [nM] | EC50 [2, 6] [nM] | also measured
CCCOc1cnc(O[C@@H]2C[C@H]3C(=O)N[C@]4(C(=O)NS(=O)(=O)C5CC5)C[C@H]4/C=C\CC[C@H](C)C[C@@H](C)[C@H](NC(=O)OC(C)(C)C(F)(F)F)C(=O)N3C2)c2ccccc12 [Compound 5090, 1,1,1-trifluoro-2-methylpropan-2-yl((2R,6S,7R,9S,13aS,14aR,16aS,Z)-14a-((cyclopropylsulfonyl)carbamoyl)-7,9-dimethyl-5,16-dioxo-2-((4-propoxyisoquinolin-1-yl)oxy)-1,2,3,5,6,7,8,9,10,11,13a,14,14a,15,16,16a-hexadecahydrocyclopropa[e]pyrrolo[1,2-a][1,4]diazacyclopentadecin-6-yl)carbamate] | > 87.4 | 4.82 to 103 | EC50 [1, 3]: 522 nM; EC50 [2, 5]: 87.4 nM
CC[C@@H]1C[C@H](C)CC/C=C\[C@@H]2C[C@@]2(C(=O)NS(=O)(=O)C2CC2)NC(=O)[C@@H]2C[C@@H](Oc3ncnc4cc(OC)ccc34)CN2C(=O)[C@H]1NC(=O)OC(C)(C)C(F)(F)F [Compound 4189] | – | – | EC50 [1, 7]: < 5.46 nM; EC50 [2, 8]: < 5.46 nM
COc1ccc2c(O[C@@H]3C[C@H]4C(=O)N[C@]5(C(=O)NS(=O)(=O)C6(C)CC6)C[C@H]5/C=C\CC[C@@H](C)C[C@@H](C)[C@H](NC(=O)OC(C)(C)C(F)(F)F)C(=O)N4C3)cc(OC)nc2c1 [Compound 1213] | – | – | EC50 [1, 7]: 1.01 to 5 nM; EC50 [2, 8]: 0.51 to 1 nM
CC[C@@H]1C[C@H](C)CC/C=C\[C@@H]2C[C@@]2(C(=O)NS(=O)(=O)C2CC2)NC(=O)[C@@H]2C[C@@H](Oc3nc4cc(OC)ccc4nc3C(C)C)CN2C(=O)[C@H]1NC(=O)OC(C)(C)C(F)(F)F [Compound 4273] | – | – | EC50 [1, 7]: 5.01 to 35 nM; EC50 [2, 8]: 1.01 to 5 nM
C[C@@H]1CC/C=C\[C@@H]2C[C@@]2(C(=O)NS(=O)(=O)C2(C)CC2)NC(=O)[C@@H]2C[C@@H](Oc3nc4c(c5ccccc35)OCCC4)CN2C(=O)[C@@H](NC(=O)OC(C)(C)C)[C@H](C)C1 [Compound 6020, tert-butyl ((2R,6S,7R,9R,13aS,14aR,16aS,Z)-2-((3,4-dihydro-2H-pyrano[3,2-c]isoquinolin-6-yl)oxy)-7,9-dimethyl-14a-(((1-methylcyclopropyl)sulfonyl)carbamoyl)-5,16-dioxo-1,2,3,5,6,7,8,9,10,11,13a,14,14a,15,16,16a-hexadecahydrocyclopropa[e]pyrrolo[1,2-a][1,4]diazacyclopentadecin-6-yl)carbamate] | < 5.46 | < 5.46 | –
CCOc1cc2ccccc2c(O[C@@H]2C[C@H]3C(=O)N[C@]4(C(=O)NS(=O)(=O)C5(C)CC5)C[C@H]4/C=C\CC[C@H](C)C[C@@H](C)[C@H](NC(=O)OC(C)(C)C(F)(F)F)C(=O)N3C2)n1 [Compound 6099, 1,1,1-trifluoro-2-methylpropan-2-yl((2R,6S,7R,9S,13aS,14aR,16aS,Z)-2-((3-ethoxyisoquinolin-1-yl)oxy)-7,9-dimethyl-14a-(((1-methylcyclopropyl)sulfonyl)carbamoyl)-5,16-dioxo-1,2,3,5,6,7,8,9,10,11,13a,14,14a,15,16,16a-hexadecahydrocyclopropa[e]pyrrolo[1,2-a][1,4]diazacyclopentadecin-6-yl)carbamate] | 1.01 to 5 | 1.01 to 5 | –
COc1ccc2c(O[C@@H]3C[C@H]4C(=O)N[C@]5(C(=O)NS(=O)(=O)C6(C)CC6)C[C@H]5/C=C\CC[C@@H](C)C[C@@H](C)[C@H](NC(=O)C5CCN(C(C)=O)CC5)C(=O)N4C3)ncc(OC)c2c1 [Compound 4141, (2R,6S,7R,9R,13aS,14aR,16aS,Z)-6-(1-acetylpiperidine-4-carboxamido)-2-(4,6-dimethoxyisoquinolin-1-yloxy)-7,9-dimethyl-N-(1-methylcyclopropylsulfonyl)-5,16-dioxo-1,2,3,5,6,7,8,9,10,11,13a,14,14a,15,16,16a-hexadecahydrocyclopropa[e]pyrrolo[1,2-a][1,4]diazacyclopentadecine-14a-carboxamide] | 4.82 to 103 | 4.82 to 103 | –
CC[C@@H]1C[C@H](C)CC/C=C\[C@@H]2C[C@@]2(C(=O)NS(=O)(=O)C2(CF)CC2)NC(=O)[C@@H]2C[C@@H](Oc3ncc(N4CCOCC4)c4ccccc34)CN2C(=O)[C@H]1NC(=O)OC(C)(C)C(C)(F)F [Compound 5447, 3,3-difluoro-2-methylbutan-2-yl((2R,6S,7R,9R,13aS,14aR,16aS,Z)-7-ethyl-14a-(((1-(fluoromethyl)cyclopropyl)sulfonyl)carbamoyl)-9-methyl-2-((4-morpholinoisoquinolin-1-yl)oxy)-5,16-dioxo-1,2,3,5,6,7,8,9,10,11,13a,14,14a,15,16,16a-hexadecahydrocyclopropa[e]pyrrolo[1,2-a][1,4]diazacyclopentadecin-6-yl)carbamate] | 1.01 to 5 | 1.01 to 5 | –
COc1ccc2c(O[C@@H]3C[C@H]4C(=O)N[C@]5(C(=O)NS(=O)(=O)C6CC6)C[C@H]5/C=C\CC[C@@H](C)C[C@@H](C)[C@H](NC(=O)OC(C)(C)C(F)(F)F)C(=O)N4C3)nc(N(C)C)cc2c1 [Compound 3130, 1,1,1-trifluoro-2-methylpropan-2-yl((2R,6S,7R,9R,13aS,14aR,16aS,Z)-14a-((cyclopropylsulfonyl)carbamoyl)-2-((3-(dimethylamino)-6-methoxyisoquinolin-1-yl)oxy)-7,9-dimethyl-5,16-dioxo-1,2,3,5,6,7,8,9,10,11,13a,14,14a,15,16,16a-hexadecahydrocyclopropa[e]pyrrolo[1,2-a][1,4]diazacyclopentadecin-6-yl)carbamate] | – | – | EC50 ([1]; HCV genotype 1a replicon luciferase assay, range class, read-out: LE_1a (EC50, range)): < 5.46 nM; EC50 ([2]; HCV genotype 1b replicon luciferase assay, range class, read-out: LE_1b (EC50, range)): < 5.46 nM
CCCOc1cnc(O[C@@H]2C[C@H]3C(=O)N[C@]4(C(=O)NS(=O)(=O)C5(C)CC5)C[C@H]4/C=C\CC[C@H](C)C[C@@H](C)[C@H](NC(=O)O[C@H](C)C(F)(F)F)C(=O)N3C2)c2ccccc12 [Compound 5084, (R)-1,1,1-trifluoropropan-2-yl ((2R,6S,7R,9S,13aS,14aR,16aS,Z)-7,9-dimethyl-14a-(((1-methylcyclopropyl)sulfonyl)carbamoyl)-5,16-dioxo-2-((4-propoxyisoquinolin-1-yl)oxy)-1,2,3,5,6,7,8,9,10,11,13a,14,14a,15,16,16a-hexadecahydrocyclopropa[e]pyrrolo[1,2-a][1,4]diazacyclopentadecin-6-yl)carbamate] | > 87.4 | > 87.4 | EC50 [1, 3]: 520 nM; EC50 [2, 5]: 131 nM
COc1ccc2c(O[C@@H]3C[C@H]4C(=O)N[C@]5(C(=O)NS(=O)(=O)C6(C)CC6)C[C@H]5/C=C\CC[C@H](C)C[C@@H](C)[C@H](NC(=O)OC(C)(C)C(C)(F)F)C(=O)N4C3)nc(-c3ccc(OC(C)C)cc3)c(OC)c2c1 [Compound 5345, 3,3-difluoro-2-methylbutan-2-yl((2R,6S,7R,9S,13aS,14aR,16aS,Z)-2-((3-(4-isopropoxyphenyl)-4,6-dimethoxyisoquinolin-1-yl)oxy)-7,9-dimethyl-14a-(((1-methylcyclopropyl)sulfonyl)carbamoyl)-5,16-dioxo-1,2,3,5,6,7,8,9,10,11,13a,14,14a,15,16,16a-hexadecahydrocyclopropa[e]pyrrolo[1,2-a][1,4]diazacyclopentadecin-6-yl)carbamate] | 4.82 to 103 | < 5.46 | –
